Where two headings read alike, the source gives them in different places.
Assays:
[1] = target: T1, MALT1 (Homo sapiens, UniProt Q9UDY8); assay: EC50 determination for MALT1 inhibition (Trypan blue dye-exclusion in cell lines); format: cell-based
T1 construct: endogenous in cells
T1 sequence (Q9UDY8 1-824): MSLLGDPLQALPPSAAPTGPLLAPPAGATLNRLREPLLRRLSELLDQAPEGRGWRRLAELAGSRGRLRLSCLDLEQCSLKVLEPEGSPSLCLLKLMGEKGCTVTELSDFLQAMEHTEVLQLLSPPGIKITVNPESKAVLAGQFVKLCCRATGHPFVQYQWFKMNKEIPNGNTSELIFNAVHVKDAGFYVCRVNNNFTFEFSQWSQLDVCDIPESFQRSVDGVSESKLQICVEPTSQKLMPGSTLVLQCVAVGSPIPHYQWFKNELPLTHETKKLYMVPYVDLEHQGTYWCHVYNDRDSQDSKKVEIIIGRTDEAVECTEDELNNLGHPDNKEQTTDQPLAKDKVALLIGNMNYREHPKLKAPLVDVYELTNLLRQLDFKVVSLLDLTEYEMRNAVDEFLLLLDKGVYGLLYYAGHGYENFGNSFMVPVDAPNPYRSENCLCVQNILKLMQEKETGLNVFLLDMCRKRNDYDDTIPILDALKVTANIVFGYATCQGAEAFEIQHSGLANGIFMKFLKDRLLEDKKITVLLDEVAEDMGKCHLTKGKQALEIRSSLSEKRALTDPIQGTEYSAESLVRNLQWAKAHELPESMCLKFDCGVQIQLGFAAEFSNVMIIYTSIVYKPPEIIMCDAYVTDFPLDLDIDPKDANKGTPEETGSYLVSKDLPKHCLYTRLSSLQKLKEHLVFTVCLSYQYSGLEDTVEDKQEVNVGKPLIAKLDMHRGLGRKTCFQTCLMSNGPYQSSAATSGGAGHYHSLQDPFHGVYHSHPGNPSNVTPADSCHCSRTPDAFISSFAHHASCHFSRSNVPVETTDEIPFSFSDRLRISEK
Text: The term is quite general, regardless of whether a test-compound enhances or diminishes the biological parameter in question. Its equation is a modified version of the IC50 equation, taking the ratio of the response (R) to the maximum response (Rmax): {R/Rmax} = {1/ [1+(E50/I)n]}. […] However, some test-compounds achieve only partial attenuation of a biological activity, even at high concentrations. In this case, IC50 values may be misleading about potency.
Cell lines were in log phase of growth, harvested and seeded in a 96-well plate at optimum plating density. Next, cells were incubated with and without test-compounds (0.1 µM - 1 µM - 10 µM) in the presence of positive, negative and untreated controls.

[2] = test system: Glioblastoma multiforme (GBM) cell growth (U3024, U87MG); assay: Antiproliferative effect on GBM cell growth, 3D cell cultures; format: cell-based, human; conditions: tested at 0.1 µM, 1 µM, and 10 µM at t=48h, 3D cultures
Text: To measure the MALT1-dependent antiproliferative effect of sitagliptin on GMB cell growth and at the same time account for biases, U3024, an established and characterized GBM cell line derived from GBM patient surgical samples was chosen (https://www.hgcc.se/). U3024 is of mesenchymal subtype (person) and is characterized by MALT1 overexpression. Cell lines were maintained in serum-free neural stem cell media to retain tumour-initiating capacity as well as tumour specific phenotypes (Pollard et al, 2009). The U87MG glioma cell line served as a bona fide human glioblastoma cell line. Cell cultures were performed in 3D. […] Cell lines were in log phase of growth, harvested and seeded in a 96-well plate at optimum plating density. […] DMSO was <0.05%. […] The results are mean ± standard deviation of three independent experiments done in triplicates. […] Three independent experiments were performed in triplicates.

[3] = test system: patient-derived glioblastoma cells (U3024); assay: Spheroid disintegration in patient-derived glioblastoma cells over-expressing MALT1; format: cell-based, human; conditions: 10 µM; U3024 spheroids compared to untreated spheroids
Text: To measure the MALT1-dependent antiproliferative effect of sitagliptin on GMB cell growth and at the same time account for biases, U3024, an established and characterized GBM cell line derived from GBM patient surgical samples was chosen (https://www.hgcc.se/). U3024 is of mesenchymal subtype (person) and is characterized by MALT1 overexpression. Cell lines were maintained in serum-free neural stem cell media to retain tumour-initiating capacity as well as tumour specific phenotypes (Pollard et al, 2009). The U87MG glioma cell line served as a bona fide human glioblastoma cell line. Cell cultures were performed in 3D. […] Cell lines were in log phase of growth, harvested and seeded in a 96-well plate at optimum plating density. […] DMSO was <0.05%.

[4] = target: T2, recombinant full-length human MALT1 (Homo sapiens, UniProt Q9UDY8); assay: Fluorogenic MALT1 proteolytic activity assay with Ac-LRSR-AMC substrate; format: biochemical; conditions: read-out: percent inhibition of MALT1 proteolytic activity
T2 construct: recombinant full-length human MALT1
T2 sequence (Q9UDY8 1-824): T1 sequence (Q9UDY8 1-824)
Procedure: Fluorogenic reactions were monitored in the presence of recombinant full-length human MALT1 and Ac-LRSR-AMC (Ac-Leu-Arg-Ser-Arg-7-amino-4-methylcoumarin) - SEQ ID NO:1 - with excitation/emission wavelengths of 360/460 nm in black, low binding microtiter plates using a microplate reader. Cleavage of the Ac-LRSR-AMC substrate by MALT1 results in the release of AMC and a fluorescent signal. […] The final percent inhibition was calculated with the formula: {[fluorescence_test compound(T2-T1) - fluorescence_negative control (T2-T1)]/ [fluorescence_positive control (T2-T1) - fluorescence_negative control (T2-T1)]} × 100. […] A so-called buffer only test-condition (i.e. MALT1+Ac-LRSR-AMC substrate+buffer) served as negative control. […] MI-2 (C19H17Cl3N4O3; 2-chloro-N-[4-[5-(3,4-dichlorophenyl)-3-(2-methoxyethoxy)-1,2,4-triazol-1-yl] phenyl] acetamide) is an orthosteric and irreversible MALT1 inhibitor (Fontán et al, 2012).

[5] = target: CYP1A2 (Homo sapiens, UniProt P05177); assay: CYP450 inhibition/induction, baculosomes, fluorescent substrate, kinetic model; format: in vitro ADME; conditions: 1 µM; 20°C; t = 60 min
Sequence of CYP1A2 (P05177 whole entry, canonical isoform): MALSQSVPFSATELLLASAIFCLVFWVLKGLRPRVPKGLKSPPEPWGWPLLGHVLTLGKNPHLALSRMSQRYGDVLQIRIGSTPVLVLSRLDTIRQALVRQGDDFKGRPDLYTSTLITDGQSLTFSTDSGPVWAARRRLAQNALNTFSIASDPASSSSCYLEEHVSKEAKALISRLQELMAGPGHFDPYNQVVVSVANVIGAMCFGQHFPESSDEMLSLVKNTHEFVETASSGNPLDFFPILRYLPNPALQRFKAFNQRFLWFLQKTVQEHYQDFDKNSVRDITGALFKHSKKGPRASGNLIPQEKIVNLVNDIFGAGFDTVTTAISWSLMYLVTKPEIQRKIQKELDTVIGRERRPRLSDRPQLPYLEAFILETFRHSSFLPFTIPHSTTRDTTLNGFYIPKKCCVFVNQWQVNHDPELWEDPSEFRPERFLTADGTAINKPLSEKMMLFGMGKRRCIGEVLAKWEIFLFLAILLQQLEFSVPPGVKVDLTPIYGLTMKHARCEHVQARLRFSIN
Procedure: (§1) To determine the isozyme-specific CYP450-metabolism, baculosomes® expressing CYP1A2, CYP2A6, CYP2B6, CYP2C9, CYP2C19, CYP2D6 and CYP3A4 human CYP450 isoenzymes were purchased from Thermo Fisher Scientific (Waltham, MA, USA). All reagents were handled and prepared according to the manufacturer's protocol. Sitagliptin was tested at 1 µM. Enzymatic activity in the presence of sitagliptin was assessed based on the kinetic model for CYP1A2, CYP2A6, CYP2B6, CYP2C9, CYP2C19, CYP2D6 and CYP3A4 isoforms. Reactions took place in triplicates at 20°C. Glucose-6-phosphate at 333 mM and glucose-6-phosphate-dehydrogenase at 30 U/mL in 100 mM potassium phosphate, pH 8.0 (regeneration system) converted NADP+ (10 mM in 100 mM potassium phosphate, pH 8.0) into NADPH to initiate the CYP450 reaction. Upon the addition of the fluorescent substrate, immediately (<2 min), the fluorescence signal was monitored over time at suitable excitation and emission wavelengths by Lionheart FX (BioTek, Winooski, VT, USA). CYP450 inhibition (%) was determined based on the reaction rates (fluorescence intensity changes per unit time).

[6] = target: T3, CYP2A6 (Homo sapiens, UniProt P11509); assay: as above; format: in vitro ADME; conditions: 1 µM; 20°C; t = 60 min
T3 construct: purchased Thermo Fisher Scientific (Waltham, MA, USA); host or cells: baculosomes
T3 sequence (P11509 1-494): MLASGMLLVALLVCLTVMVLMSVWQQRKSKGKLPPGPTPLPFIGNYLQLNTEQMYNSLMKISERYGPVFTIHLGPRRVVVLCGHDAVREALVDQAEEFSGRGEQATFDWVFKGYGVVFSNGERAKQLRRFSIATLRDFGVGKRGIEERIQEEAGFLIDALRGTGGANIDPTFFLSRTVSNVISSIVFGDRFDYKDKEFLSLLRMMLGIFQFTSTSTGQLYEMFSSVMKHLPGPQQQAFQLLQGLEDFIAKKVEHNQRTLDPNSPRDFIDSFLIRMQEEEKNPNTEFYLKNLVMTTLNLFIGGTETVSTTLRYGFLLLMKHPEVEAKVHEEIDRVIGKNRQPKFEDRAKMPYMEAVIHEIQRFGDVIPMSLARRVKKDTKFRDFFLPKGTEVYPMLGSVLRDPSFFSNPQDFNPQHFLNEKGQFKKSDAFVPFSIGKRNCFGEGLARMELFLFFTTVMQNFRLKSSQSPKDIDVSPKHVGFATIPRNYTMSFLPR
Procedure: as §1

[7] = target: T4, CYP2B6 (Homo sapiens, UniProt P20813); assay: as above; format: in vitro ADME; conditions: 1 µM; 20°C; t = 60 min
T4 construct: purchased Thermo Fisher Scientific (Waltham, MA, USA); host or cells: baculosomes
T4 sequence (P20813 1-491): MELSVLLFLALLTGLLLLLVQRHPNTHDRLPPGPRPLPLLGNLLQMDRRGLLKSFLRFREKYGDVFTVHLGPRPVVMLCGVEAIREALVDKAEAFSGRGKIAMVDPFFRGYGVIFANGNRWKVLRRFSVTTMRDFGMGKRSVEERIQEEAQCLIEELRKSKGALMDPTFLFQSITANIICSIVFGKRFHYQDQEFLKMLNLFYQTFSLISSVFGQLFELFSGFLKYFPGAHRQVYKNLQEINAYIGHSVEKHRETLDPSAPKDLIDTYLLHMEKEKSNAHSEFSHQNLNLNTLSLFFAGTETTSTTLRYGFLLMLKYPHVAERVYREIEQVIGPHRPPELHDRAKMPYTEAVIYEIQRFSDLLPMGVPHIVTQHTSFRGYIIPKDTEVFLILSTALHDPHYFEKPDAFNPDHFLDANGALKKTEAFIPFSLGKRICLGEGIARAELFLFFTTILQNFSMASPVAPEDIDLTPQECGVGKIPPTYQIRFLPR
Procedure: as §1

[8] = target: T5, CYP2C19 (Homo sapiens, UniProt P33261); assay: as above; format: in vitro ADME; conditions: 1 µM; 20°C; t = 60 min
T5 construct: purchased Thermo Fisher Scientific (Waltham, MA, USA); host or cells: baculosomes
T5 sequence (P33261 whole entry): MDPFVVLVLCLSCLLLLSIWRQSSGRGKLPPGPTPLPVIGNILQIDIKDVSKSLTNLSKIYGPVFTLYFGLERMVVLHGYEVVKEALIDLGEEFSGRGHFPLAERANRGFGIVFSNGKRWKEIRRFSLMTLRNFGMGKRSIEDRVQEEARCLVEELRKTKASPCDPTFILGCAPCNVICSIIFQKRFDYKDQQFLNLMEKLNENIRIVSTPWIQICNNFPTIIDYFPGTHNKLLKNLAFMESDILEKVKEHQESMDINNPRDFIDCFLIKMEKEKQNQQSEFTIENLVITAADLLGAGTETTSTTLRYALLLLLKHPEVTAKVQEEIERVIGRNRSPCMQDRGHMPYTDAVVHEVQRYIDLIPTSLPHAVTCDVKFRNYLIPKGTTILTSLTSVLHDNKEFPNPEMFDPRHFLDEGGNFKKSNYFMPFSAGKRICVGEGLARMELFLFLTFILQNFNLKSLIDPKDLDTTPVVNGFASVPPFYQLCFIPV
Procedure: as §1

[9] = target: T6, CYP2C9 (Homo sapiens, UniProt P11712); assay: as above; format: in vitro ADME; conditions: 1 µM; 20°C; t = 60 min
T6 construct: purchased Thermo Fisher Scientific (Waltham, MA, USA); host or cells: baculosomes
T6 sequence (P11712 whole entry): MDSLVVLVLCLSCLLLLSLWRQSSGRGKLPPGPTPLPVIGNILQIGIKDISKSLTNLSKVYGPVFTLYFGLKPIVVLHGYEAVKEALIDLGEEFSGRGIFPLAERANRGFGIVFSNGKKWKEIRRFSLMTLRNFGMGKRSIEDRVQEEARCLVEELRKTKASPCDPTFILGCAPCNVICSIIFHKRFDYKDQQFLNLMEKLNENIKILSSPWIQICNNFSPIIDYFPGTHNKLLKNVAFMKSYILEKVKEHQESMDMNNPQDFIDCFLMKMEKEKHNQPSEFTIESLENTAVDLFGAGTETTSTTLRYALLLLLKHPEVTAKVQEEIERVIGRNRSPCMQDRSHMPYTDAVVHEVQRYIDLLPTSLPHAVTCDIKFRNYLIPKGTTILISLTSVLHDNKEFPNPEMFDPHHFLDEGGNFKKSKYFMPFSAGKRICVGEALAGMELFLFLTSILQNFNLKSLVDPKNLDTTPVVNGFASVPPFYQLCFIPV
Procedure: as §1

[10] = target: T7, CYP2D6 (Homo sapiens, UniProt P10635); assay: as above; format: in vitro ADME; conditions: 1 µM; 20°C; t = 60 min
T7 construct: purchased Thermo Fisher Scientific (Waltham, MA, USA); host or cells: baculosomes
T7 sequence (P10635 whole entry): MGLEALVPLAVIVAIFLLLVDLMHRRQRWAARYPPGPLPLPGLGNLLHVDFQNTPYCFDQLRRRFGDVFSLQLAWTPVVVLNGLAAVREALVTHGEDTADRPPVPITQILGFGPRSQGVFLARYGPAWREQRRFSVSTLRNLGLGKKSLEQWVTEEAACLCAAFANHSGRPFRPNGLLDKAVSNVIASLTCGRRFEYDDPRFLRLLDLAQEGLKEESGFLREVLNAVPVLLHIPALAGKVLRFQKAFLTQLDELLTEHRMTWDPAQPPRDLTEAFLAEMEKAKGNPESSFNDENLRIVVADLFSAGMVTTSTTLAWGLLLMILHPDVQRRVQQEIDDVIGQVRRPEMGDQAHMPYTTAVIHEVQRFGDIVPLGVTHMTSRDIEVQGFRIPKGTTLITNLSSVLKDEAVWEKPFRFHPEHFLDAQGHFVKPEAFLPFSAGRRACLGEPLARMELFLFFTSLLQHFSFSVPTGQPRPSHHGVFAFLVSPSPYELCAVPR
Procedure: as §1

[11] = target: T8, CYP3A4 (Homo sapiens, UniProt P08684); assay: as above; format: in vitro ADME; conditions: 1 µM; 20°C; t = 60 min
T8 construct: purchased Thermo Fisher Scientific (Waltham, MA, USA); host or cells: baculosomes
T8 sequence (P08684 whole entry): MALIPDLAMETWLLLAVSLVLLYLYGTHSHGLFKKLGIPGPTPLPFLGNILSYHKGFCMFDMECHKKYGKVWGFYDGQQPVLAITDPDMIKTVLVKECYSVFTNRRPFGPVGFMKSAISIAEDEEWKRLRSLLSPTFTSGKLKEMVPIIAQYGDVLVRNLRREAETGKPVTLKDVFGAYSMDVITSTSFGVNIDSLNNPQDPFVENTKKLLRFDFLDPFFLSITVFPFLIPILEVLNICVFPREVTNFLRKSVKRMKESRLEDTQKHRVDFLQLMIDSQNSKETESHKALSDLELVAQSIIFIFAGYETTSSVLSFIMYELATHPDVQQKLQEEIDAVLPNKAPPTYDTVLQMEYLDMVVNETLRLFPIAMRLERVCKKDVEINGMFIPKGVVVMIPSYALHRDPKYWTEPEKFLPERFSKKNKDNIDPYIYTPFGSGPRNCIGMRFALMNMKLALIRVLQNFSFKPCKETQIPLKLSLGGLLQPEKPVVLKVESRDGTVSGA
Procedure: as §1

Structure (SMILES): COCCOc1nc(-c2ccc(Cl)c(Cl)c2)n(-c2ccc(NC(=O)CCl)cc2)n1 [MI-2, 2-chloro-N-[4-[5-(3,4-dichlorophenyl)-3-(2-methoxyethoxy)-1,2,4-triazol-1-yl]phenyl] acetamide]
- EC50 [1]: 1000 nM

Structure (SMILES): N[C@@H](CC(=O)N1CCn2c(nnc2C(F)(F)F)C1)Cc1cc(F)c(F)cc1F [Sitagliptin, (3R)-3-amino-1-[3-(trifluoromethyl)-6,8-dihydro-5H-[1,2,4]triazolo[4,3-a]pyrazin-7-yl]-4-(2,4,5-trifluorophenyl)butan-1-one]
- antiproliferative effect on GBM cell growth [2]: strong antiproliferative effect
- inhibition of MALT1 resulting in spheroid disintegration [3]: spheroid disintegration
- inhibition at 10 µM [4]: ≥ 40%
- EC50 ([1]; 0.1 µM - 1 µM - 10 µM, Trypan blue dye-exclusion at t=48h, mean of three independent experiments in triplicates, read-out: EC50 values): 1300 nM
- CYP1A2 inhibition / induction [5]: does not inhibit nor induces
- CYP2A6 inhibition / induction [6]: does not inhibit nor induces
- CYP2B6 inhibition / induction [7]: does not inhibit nor induces
- CYP2C19 inhibition / induction [8]: does not inhibit nor induces
- CYP2C9 inhibition / induction [9]: does not inhibit nor induces
- CYP2D6 inhibition / induction [10]: does not inhibit nor induces
- CYP3A4 inhibition / induction [11]: does not inhibit nor induces

— patent EP4494641A1, “SITAGLIPTIN IS A MALT1 INHIBITOR” (Cloudpharm Private Company, priority 2023, dated 2025)
